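Grown in 96-well plates, cells were treated for 48 hours with each compound at five concentrations. Insufficient inhibition: endpoint recorded as highest concentration tested. The concentration for 50% growth inhibition is given as GI50.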 Activity calls are given as the source filed them. Cut-off read from the data, not from the text of the source: active = GI50 up to about 1.1 µM and inactive = higher.
Columns and labels:
Assay in all cases: NCI tumour cell line growth inhibition, 48 h
[1] = test system: A498
[2] = test system: A549
[3] = test system: CCRF-CEM
[4] = test system: DU-145
[5] = test system: HCT-15
[6] = test system: HOP-92
[7] = test system: Hs-578T
[8] = test system: LOX IMVI
[9] = test system: M14
[10] = test system: MDA-MB-435
[11] = test system: PC-3
[12] = test system: SK-MEL-5
[13] = test system: SW-620
[14] = test system: TK-10
[15] = test system: UACC-257

| SMILES | GI50 [1] | GI50 [2] | GI50 [3] | GI50 [4] | GI50 [5] [µM] | GI50 [6] | GI50 [7] | GI50 [8] | GI50 [9] | GI50 [10] | GI50 [11] | GI50 [12] | GI50 [13] | GI50 [14] | GI50 [15] |
| --- | --- | --- | --- | --- | --- | --- | --- | --- | --- | --- | --- | --- | --- | --- | --- |
| O=c1cccc2n1C[C@H]1CNC[C@H]2C1 | > 100 µM (inactive) | > 100 µM (inactive) | > 100 µM (inactive) | > 100 µM (inactive) | > 100 | > 100 µM (inactive) | > 100 µM (inactive) | > 100 µM (inactive) | > 100 µM (inactive) | > 100 µM (inactive) | > 100 µM (inactive) | > 100 µM (inactive) | > 100 µM (inactive) | > 100 µM (inactive) | > 100 µM (inactive) |
| Cc1ccc2c(c1)/C(=N/Nc1ccccc1[N+](=O)[O-])C(=O)N2 | 4.18 µM (inactive) | 27.9 µM (inactive) | 87.1 µM (inactive) | 25 µM (inactive) | > 100 | 2.92 µM (inactive) | 3.93 µM (inactive) | 4.36 µM (inactive) | 81.5 µM (inactive) | > 100 µM (inactive) | 24.8 µM (inactive) | 7.35 µM (inactive) | 35.3 µM (inactive) | 3.24 µM (inactive) | 13.9 µM (inactive) |
| CC(=O)c1cc(I)c(O)c2ncccc12 | 2.85 µM (inactive) | 4.34 µM (inactive) | 2.07 µM (inactive) | 3.3 µM (inactive) | 5.13 | 2.07 µM (inactive) | > 10 µM (inactive) | 3.85 µM (inactive) | 1.97 µM (inactive) | 4.09 µM (inactive) | 5.71 µM (inactive) | 2.29 µM (inactive) | 4.17 µM (inactive) | 9.46 µM (inactive) | 2.66 µM (inactive) |
| COc1cc(/C=C2\CCC(C)C3=C2N=c2s/c(=C/c4ccc(Cl)cc4)c(=O)n2C3c2cc(OC)c(OC)c(OC)c2)cc(OC)c1OC (stereo not given) | > 100 µM (inactive) | > 100 µM (inactive) | > 100 µM (inactive) | > 100 µM (inactive) | > 100 | > 100 µM (inactive) | > 100 µM (inactive) | > 100 µM (inactive) | > 100 µM (inactive) | > 100 µM (inactive) | > 100 µM (inactive) | > 100 µM (inactive) | > 100 µM (inactive) | > 100 µM (inactive) | > 100 µM (inactive) |
| CN(C)CCOc1ccc2[nH]c(C(=O)N3CC(CCl)c4c3cc(N)c3ccccc43)cc2c1 (stereo not given) | < 0.01 µM (active) | < 0.01 µM (active) | < 0.01 µM (active) | < 0.01 µM (active) | < 0.01 | < 0.01 µM (active) | < 0.01 µM (active) | < 0.01 µM (active) | < 0.01 µM (active) | < 0.01 µM (active) | < 0.01 µM (active) | < 0.01 µM (active) | < 0.01 µM (active) | < 0.01 µM (active) | < 0.01 µM (active) |
| Cc1cc(-n2c(/C=C/c3ccc(Cl)cc3)nc3cc(Cl)ccc3c2=O)on1 | 2.31 µM (inactive) | 14.1 µM (inactive) | > 50 µM (inactive) | > 50 µM (inactive) | 28.1 | 16 µM (inactive) | 8.32 µM (inactive) | 15.1 µM (inactive) | 12.7 µM (inactive) | 14.2 µM (inactive) | > 50 µM (inactive) | 16.4 µM (inactive) | 48 µM (inactive) | 12.2 µM (inactive) | > 50 µM (inactive) |
| O=C1NC(=O)/C(=C/c2ccc(S(=O)(=O)N/N=C/c3ccccc3)cc2)N1 | 2.75 µM (inactive) | > 100 µM (inactive) | > 100 µM (inactive) | > 100 µM (inactive) | > 100 | > 100 µM (inactive) | > 100 µM (inactive) | > 100 µM (inactive) | > 100 µM (inactive) | > 100 µM (inactive) | > 100 µM (inactive) | > 100 µM (inactive) | > 100 µM (inactive) | > 100 µM (inactive) | > 100 µM (inactive) |
| O=C(O)Cc1cccc2c(=O)c3cccc([N+](=O)[O-])c3[nH]c12 | > 100 µM (inactive) | > 100 µM (inactive) | > 100 µM (inactive) | 58.5 µM (inactive) | 71.8 | > 100 µM (inactive) | 36 µM (inactive) | 48.2 µM (inactive) | 27.8 µM (inactive) | > 100 µM (inactive) | > 100 µM (inactive) | 44.7 µM (inactive) | > 100 µM (inactive) | > 100 µM (inactive) | > 100 µM (inactive) |
| O=C(NCCNCCCNC(=O)c1cc(-c2ccccc2)nc2ccccc12)c1cccc(OCc2ccccc2)c1OCc1ccccc1 | 1.6 µM (inactive) | 1.74 µM (inactive) | 1.79 µM (inactive) | 1.81 µM (inactive) | 1.74 | 1.53 µM (inactive) | 2.58 µM (inactive) | 1.57 µM (inactive) | 1.65 µM (inactive) | 1.68 µM (inactive) | 1.67 µM (inactive) | 1.71 µM (inactive) | 1.77 µM (inactive) | 1.77 µM (inactive) | 1.83 µM (inactive) |
| Cc1ccc(C(=O)N/N=C(\N=N\c2cccc([N+](=O)[O-])c2)c2ccc(N(CCC#N)CCC#N)cc2C)cc1 | 25.8 µM (inactive) | 31.9 µM (inactive) | 24.8 µM (inactive) | 29 µM (inactive) | 30.8 | 45.9 µM (inactive) | 23.4 µM (inactive) | 24.5 µM (inactive) | 33.4 µM (inactive) | 18.1 µM (inactive) | 23.8 µM (inactive) | 13.6 µM (inactive) | 38.7 µM (inactive) | 45.1 µM (inactive) | 10.6 µM (inactive) |
| Cc1c(Cl)nc(Cl)nc1Cl | 3.8 µM (inactive) | 2.69 µM (inactive) | 0.238 µM (active) | 3.63 µM (inactive) | 0.287 | 2.12 µM (inactive) | 3.12 µM (inactive) | 0.373 µM (active) | 0.857 µM (active) | 2.19 µM (inactive) | 2 µM (inactive) | 2.16 µM (inactive) | 1.27 µM (inactive) | 3.51 µM (inactive) | 2.3 µM (inactive) |
| O=C(Cc1csc2[n+]1C(=O)/C(=C/c1ccc(Cl)cc1)S2)Nc1ccccc1 | 15.7 µM (inactive) | 24.1 µM (inactive) | 23.8 µM (inactive) | 31.4 µM (inactive) | 23.8 | 26.6 µM (inactive) | 27.7 µM (inactive) | 16.2 µM (inactive) | 28.1 µM (inactive) | 25.3 µM (inactive) | 16.4 µM (inactive) | 10.9 µM (inactive) | 26.4 µM (inactive) | 31.6 µM (inactive) | 19.2 µM (inactive) |
| CC1CCC2(CC1)NC1=C(CC(C)CC1)C1=C2CC(C)CC1 (stereo not given) | 34 µM (inactive) | 36.8 µM (inactive) | 18.1 µM (inactive) | 38.3 µM (inactive) | 18.1 | 18.3 µM (inactive) | 26.9 µM (inactive) | 18.3 µM (inactive) | 18.5 µM (inactive) | > 10 µM (inactive) | 16.1 µM (inactive) | 12.1 µM (inactive) | 18.9 µM (inactive) | 26.5 µM (inactive) | 25.3 µM (inactive) |
| N=C(N)NS(=O)(=O)c1ccc(Nc2c3ccccc3nc3c(C(=O)NCCO)cccc23)cc1 | 0.13 µM (active) | 0.157 µM (active) | 0.416 µM (active) | 0.214 µM (active) | 0.236 | 0.192 µM (active) | 0.209 µM (active) | 0.143 µM (active) | 0.183 µM (active) | 0.173 µM (active) | 0.21 µM (active) | 0.142 µM (active) | 0.188 µM (active) | 0.281 µM (active) | 0.243 µM (active) |
